Assay results as given in patent publication US20100311714A1, “1H-IMIDAZO[4,5-c]QUINOLINONE COMPOUNDS” (priority 2009, published 2010).

Experiments:
PI3K delta = target: T1, PI3K delta (Homo sapiens, UniProt O00329); assay: PI3K delta kinase assay (Kinase-Glo luminescence); format: biochemical; settings: read-out: EPK_PI3Kdelta/IC50
T1 construct: for the full-length p110-d subunit are generated and fused by overlapping PCR; His tag (C); made in house; host or cells: baculovirus BV1060; Tn5 (Trichoplusia ni) or TiniPro insect cells
Description: (§1) In a more preferred assay, the kinase reaction is performed in a final volume of 10 μL per well of a low volume non binding CORNING, 384 well black plate (Cat. No. #3676). The final concentrations of ATP and phosphatidyl inositol (PI) in the assay are 1 μM and 10 μg/mL respectively. The reaction is started by the addition of ATP.
(§2) The components of the assay are added per well as follows:
(§3) 50 nL test compounds in 90% DMSO per well, in columns 1-20, 8 concentrations (⅓ and 1/3.33 serial dilution step) in single. • Low control: […] of 90% DMSO in half the wells of columns 23-24 (0.45% in final). • High control: 50 nL of reference compound (e.g. compound of Example 7 in WO 2006/122806) in the other half of columns 23-24 (2.5 μM in final). • Standard: 50 nL of reference compound as just mentioned diluted as the test compounds in columns 21-22 • 20 mL ‘buffer’ are prepared per assay: • 200 μL of 1M TRIS HCl pH7.5 (10 mM in final) • 60 μL of 1M MgCl2 (3 mM in final) • 500 μL of 2M NaCl (50 mM in final) • 100 μL of 10% CHAPS (0.05% in final) • 200 μL of 100 mM DTT (1 mM in final) • 18.94 mL of nanopure water • 10 mL ‘PI’ are prepared per assay: • 200 μL of 1 mg/ml L-alpha-Phosphatidylinositol (Liver Bovine, Avanti Polar Lipids Cat. No. 840042C MW=909.12) prepared in 3% OctylGlucoside (10 μg/ml in final) • 9.8 mL of ‘buffer’ • 10 mL ‘ATP’ are prepared per assay: • 6.7 μL of 3 mM stock of ATP giving a final concentration of 1 μM per well • 10 mL of ‘buffer’ • 2.5 mL of each PI3K construct are prepared per assay in ‘PI’ with the following final concentration: • 10 nM PI3K alfa EMV B1075 • 25 nM beta EMV BV949 • 10 nM delta EMV BV1060 • 150 nM gamma EMV BV950 • 5 μL of ‘PI/PI3K’ are added per well. • 5 μl ‘ATP’ are added per well to start the reaction. • The plates are then incubated at room temperature for 60 minutes (alfa, beta, delta) or 120 minutes (gamma). • The reaction is terminated by the addition of 10 μL Kinase-Glo (Promega Cat. No. #6714). • The assay plates are read after 10 minutes in Synergy 2 reader (BioTek, Vermont USA) with an integration time of 100 milliseconds and sensitivity set to 191. • Output: The High control is around 60′000 counts and the Low control is 30′000 or lower • This luminescence assay gives a useful Z′ ratio between 0.4 and 0.7
PI3Kδ BV-1060 p85(iSH2)-Gly Linker-p110d(Full-Length)-C-Term His Tag
PI3K delta is purified in three chromatographic steps: immobilized metal affinity chromatography on a Ni Sepharose resin (GE Healthcare), gel filtration utilizing a Superdex 200 26/60 column (GE Healthcare), and finally a anion exchange step on a Q-HP column (GE Healthcare). All buffers are chilled to 4° C. and lysis is performed chilled on ice. Column fractionation is performed rapidly at room temperature. Typically frozen insect cells are lysed in a hypertonic lysis buffer and applied to a prepared IMAC column. The resin is washed with 3-5 column volumes of lysis buffer, followed by 3-5 column volumes wash buffer containing 45 mM imidazole, and the target protein is then eluted with a buffer containing 250 mM imidazole. Fractions are analyzed by Coomassie stained SDS-PAGE gels, and fractions containing the target protein are pooled and applied to a prepared GFC column. Fractions from the GFC column are analyzed by Coomassie stained SDS-PAGE gels, and fractions containing the target protein are pooled. The pool from the GFC column is diluted into a low salt buffer and applied to a prepared Q-HP column. The column is washed with low salt buffer until a stable A280 baseline absorbance is achieved, and eluted using a 20 column volume gradient from 0 mM NaCl to 500 mM NaCl. Again, fractions from the Q-HP column are analyzed by Coomassie stained SDS-PAGE gels, and fractions containing the target protein are pooled. The final pool is dialyzed into a storage buffer containing 50% glycerol and stored at −20° C. The final pool is assayed for activity in the phosphoinostitol kinase assay. […]

PI3K beta = target: T2, PI3K beta (Homo sapiens, UniProt P42338); assay: PI3K beta kinase assay (Kinase-Glo luminescence); format: biochemical; settings: read-out: EPK_PI3Kbeta/IC50
T2 construct: for the full-length p110-b subunit are generated and fused by overlapping PCR; His tag (C); made in house; host or cells: baculovirus BV949; Tn5 (Trichoplusia ni) or TiniPro insect cells
Description: as §1, §2, §3
PI3Kβ BV-949 p85(iSH2)-Gly linker-r 110b(full-length)-C-term His Tag
PI3K beta is purified in two chromatographic steps: immobilized metal affinity chromatography (IMAC) on a Ni Sepharose resin (GE Healthcare) and gel filtration (GFC) utilizing a Superdex 200 26/60 column (GE Healthcare). All buffers are chilled to 4° C. and lysis is performed chilled on ice. Column fractionation is performed rapidly at room temperature.
(§4) IC50 is determined by a four parameter curve fitting routine that comes along with “excel fit”. A 4 Parameter logistic equation is used to calculate IC50 values (IDBS XLfit) of the percentage inhibition of each compound at 8 concentrations (usually 10, 3.0, 1.0, 0.3, 0.1, 0.030, 0.010 and 0.003 μM). Alternatively, IC50 values are calculated using idbsXLfit model 204, which is a 4 parameter logistic model.

mTOR = target: T3, mTOR (Homo sapiens, UniProt P42345); assay: Biochemical assay for m-TOR by TR-FRET; settings: read-out: EPK_mTOR/IC50
T3 construct: purchased Invitrogen Corporation (Carlsbad/Calif., USA) PV4753
Description: Biochemical Assay for m-TOR by TR-FRET.
Assay components are purchased from Invitrogen Corporation (Carlsbad/Calif., USA): GFP-4EBP1 (Cat. No. PV4759), Tb3+-α-p4EBP1 [pThr46] Antibody (Cat. No. PV4757), proprietary TR-FRET dilution buffer (Cat. No. PV3574), mTOR protein (Cat. No. PV4753).
50 nL of compound dilutions (final concentration of 10, 3.0, 1.0, 0.3, 0.1, 0.03, 0.01 and 0.003 μM) are dispensed onto black 384-well low volume non-binding polystyrene (Cat. No. NBS#3676, Corning, Lowell/Mass., USA). Then 5 μL of ATP (8 μM final concentration) and GFP-4EBP1 (400 nM final concentration) with 5 μL mTOR proteins (0.5 nM final concentration) are incubated at rt. The standard reaction buffer for the TR-FRET mTOR assay contained 50 mM HEPES pH 7.5, 10 mM MnCl2, 50 mM NaCl, 1 mM EGTA, 1 mM DTT. Reactions were stopped with 10 μL of a mixture of EDTA containing the Tb3+-α-p4EBP1[pT46] detection Ab (0.5 nM) in TR-FRET dilution buffer (proprietary to IVG). Plates are read 15 mins later in a Synergy2 reader using an integration time of 0.2 seconds and a delay of 0.1 seconds. Control for the 100% inhibition of the kinase reaction is performed by replacing the mTOR kinase by the standard reaction buffer. The control for the 0% inhibition is given by the solvent vehicle of the compounds (90% DMSO in H2O). A standard compound is used as a reference compound and included in all assay plates in the form of 16 dilution points in duplicate.

PI3K alfa = target: T4, PI3K alfa (Homo sapiens, UniProt P42336); assay: PI3K alpha kinase assay (Kinase-Glo luminescence); format: biochemical; settings: read-out: EPK_PI3Kalfa/IC50
T4 construct: His tag (C); made in house; host or cells: baculovirus BV1075; Tn5 (Trichoplusia ni) or TiniPro insect cells
Description: as §1, §2, §3
Two different constructs, BV 1052 and BV 1075, are used to generate the PI3 Kinase α proteins for compound screening.
PI3K alpha is purified in three chromatographic steps: immobilized metal affinity chromatography on a Ni Sepharose resin (GE Healthcare, belonging to General Electric Company, Fairfield, Conn., USA), gel filtration utilizing a Superdex 200 26/60 column (GE Healthcare), and finally a cation exchange step on a SP-XL column (GE Healthcare). All buffers are chilled to 4° C. and lysis is performed chilled on ice. Column fractionation is performed rapidly at room temperature.
as §4

T2 sequence (P42338 with tags, fused parts or gaps limits assumed): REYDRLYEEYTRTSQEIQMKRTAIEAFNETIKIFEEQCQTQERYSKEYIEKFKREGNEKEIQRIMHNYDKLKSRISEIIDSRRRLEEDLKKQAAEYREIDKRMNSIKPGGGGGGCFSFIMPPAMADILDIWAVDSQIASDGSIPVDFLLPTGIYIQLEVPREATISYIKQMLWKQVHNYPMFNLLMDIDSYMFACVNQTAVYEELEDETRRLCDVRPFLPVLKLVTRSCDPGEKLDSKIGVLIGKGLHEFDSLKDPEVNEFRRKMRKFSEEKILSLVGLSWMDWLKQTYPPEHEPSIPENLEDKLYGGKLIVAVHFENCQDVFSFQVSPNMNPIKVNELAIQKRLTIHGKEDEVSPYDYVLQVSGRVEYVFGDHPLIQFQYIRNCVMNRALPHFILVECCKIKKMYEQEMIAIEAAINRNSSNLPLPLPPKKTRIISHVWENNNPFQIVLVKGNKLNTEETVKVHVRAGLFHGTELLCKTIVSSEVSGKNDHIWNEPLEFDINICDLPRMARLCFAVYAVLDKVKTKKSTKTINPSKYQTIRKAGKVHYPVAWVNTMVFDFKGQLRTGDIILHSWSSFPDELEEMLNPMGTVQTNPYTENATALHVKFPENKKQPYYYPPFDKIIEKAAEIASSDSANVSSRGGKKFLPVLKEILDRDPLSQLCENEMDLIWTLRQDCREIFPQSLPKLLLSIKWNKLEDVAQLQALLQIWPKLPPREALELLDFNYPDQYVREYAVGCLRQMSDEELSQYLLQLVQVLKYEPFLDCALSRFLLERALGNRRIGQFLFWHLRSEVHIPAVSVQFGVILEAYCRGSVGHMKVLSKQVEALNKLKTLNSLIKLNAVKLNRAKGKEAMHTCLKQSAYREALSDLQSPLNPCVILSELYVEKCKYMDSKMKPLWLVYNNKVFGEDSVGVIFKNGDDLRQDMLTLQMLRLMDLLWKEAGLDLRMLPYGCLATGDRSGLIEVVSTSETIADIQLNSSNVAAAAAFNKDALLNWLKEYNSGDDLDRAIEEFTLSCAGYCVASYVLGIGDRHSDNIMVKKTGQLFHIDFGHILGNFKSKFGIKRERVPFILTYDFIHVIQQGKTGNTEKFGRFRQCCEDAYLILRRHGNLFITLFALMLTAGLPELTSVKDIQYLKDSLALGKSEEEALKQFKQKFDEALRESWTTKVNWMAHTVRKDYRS
T3 sequence (P42345 1360-2549 limits assumed): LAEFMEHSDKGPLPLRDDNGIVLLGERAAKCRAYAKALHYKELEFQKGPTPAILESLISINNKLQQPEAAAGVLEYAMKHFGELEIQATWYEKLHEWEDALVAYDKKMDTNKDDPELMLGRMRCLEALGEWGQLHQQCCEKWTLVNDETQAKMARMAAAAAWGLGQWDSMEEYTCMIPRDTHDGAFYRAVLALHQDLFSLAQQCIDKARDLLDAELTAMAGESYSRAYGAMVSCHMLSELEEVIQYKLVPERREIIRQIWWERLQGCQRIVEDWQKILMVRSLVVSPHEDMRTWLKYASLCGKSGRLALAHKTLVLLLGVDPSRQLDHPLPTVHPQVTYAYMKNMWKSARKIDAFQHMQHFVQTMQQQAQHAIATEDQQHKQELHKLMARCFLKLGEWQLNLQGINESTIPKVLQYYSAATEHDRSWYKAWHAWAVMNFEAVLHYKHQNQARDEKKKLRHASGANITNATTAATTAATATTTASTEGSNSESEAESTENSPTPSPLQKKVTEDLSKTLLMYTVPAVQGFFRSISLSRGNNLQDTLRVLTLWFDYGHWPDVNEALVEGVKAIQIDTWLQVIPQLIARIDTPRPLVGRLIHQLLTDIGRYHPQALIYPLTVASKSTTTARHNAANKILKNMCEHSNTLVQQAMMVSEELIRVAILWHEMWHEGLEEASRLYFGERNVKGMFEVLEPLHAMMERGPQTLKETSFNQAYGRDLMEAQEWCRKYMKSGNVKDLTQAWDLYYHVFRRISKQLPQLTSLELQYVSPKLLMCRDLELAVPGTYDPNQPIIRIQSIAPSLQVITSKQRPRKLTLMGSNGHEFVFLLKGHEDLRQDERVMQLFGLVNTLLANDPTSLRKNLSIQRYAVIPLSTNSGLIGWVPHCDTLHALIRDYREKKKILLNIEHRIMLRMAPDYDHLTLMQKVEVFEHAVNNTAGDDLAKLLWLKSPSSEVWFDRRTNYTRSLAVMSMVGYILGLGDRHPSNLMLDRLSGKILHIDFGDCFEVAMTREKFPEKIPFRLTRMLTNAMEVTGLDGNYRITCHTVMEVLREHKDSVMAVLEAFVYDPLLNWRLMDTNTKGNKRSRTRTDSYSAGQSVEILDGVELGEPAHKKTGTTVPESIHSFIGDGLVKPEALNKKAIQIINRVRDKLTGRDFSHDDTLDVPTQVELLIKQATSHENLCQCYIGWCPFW
T4 sequence (P42336 with tags, fused parts or gaps limits assumed): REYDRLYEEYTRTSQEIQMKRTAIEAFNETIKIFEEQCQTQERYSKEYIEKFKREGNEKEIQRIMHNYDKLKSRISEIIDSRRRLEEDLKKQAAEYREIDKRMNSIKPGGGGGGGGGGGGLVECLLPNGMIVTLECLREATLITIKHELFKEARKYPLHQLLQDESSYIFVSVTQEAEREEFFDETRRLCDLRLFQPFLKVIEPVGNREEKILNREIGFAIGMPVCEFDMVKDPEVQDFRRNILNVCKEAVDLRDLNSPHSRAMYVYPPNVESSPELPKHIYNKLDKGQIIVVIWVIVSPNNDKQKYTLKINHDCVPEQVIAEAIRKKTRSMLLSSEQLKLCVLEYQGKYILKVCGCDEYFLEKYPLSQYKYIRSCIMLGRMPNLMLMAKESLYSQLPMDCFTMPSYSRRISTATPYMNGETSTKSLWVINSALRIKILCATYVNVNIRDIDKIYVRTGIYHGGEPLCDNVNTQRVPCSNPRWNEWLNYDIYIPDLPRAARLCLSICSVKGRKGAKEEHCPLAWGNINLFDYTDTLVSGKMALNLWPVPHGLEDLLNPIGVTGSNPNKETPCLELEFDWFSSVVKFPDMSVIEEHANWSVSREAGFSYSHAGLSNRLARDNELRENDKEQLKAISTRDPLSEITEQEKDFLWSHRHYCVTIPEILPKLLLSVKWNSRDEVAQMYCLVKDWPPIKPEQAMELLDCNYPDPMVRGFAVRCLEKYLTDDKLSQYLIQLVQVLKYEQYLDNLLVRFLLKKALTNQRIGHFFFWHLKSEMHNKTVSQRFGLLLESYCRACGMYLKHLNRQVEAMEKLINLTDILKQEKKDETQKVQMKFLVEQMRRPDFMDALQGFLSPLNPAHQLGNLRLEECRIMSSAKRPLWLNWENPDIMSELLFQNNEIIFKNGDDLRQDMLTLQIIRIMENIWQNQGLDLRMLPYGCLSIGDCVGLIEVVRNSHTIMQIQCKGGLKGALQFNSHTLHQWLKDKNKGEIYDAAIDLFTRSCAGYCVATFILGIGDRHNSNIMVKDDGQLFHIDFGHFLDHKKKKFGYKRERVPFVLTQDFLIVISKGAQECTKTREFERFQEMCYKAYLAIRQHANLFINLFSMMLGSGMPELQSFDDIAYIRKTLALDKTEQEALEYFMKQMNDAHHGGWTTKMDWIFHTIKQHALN
T1 sequence (O00329 with tags, fused parts or gaps limits assumed): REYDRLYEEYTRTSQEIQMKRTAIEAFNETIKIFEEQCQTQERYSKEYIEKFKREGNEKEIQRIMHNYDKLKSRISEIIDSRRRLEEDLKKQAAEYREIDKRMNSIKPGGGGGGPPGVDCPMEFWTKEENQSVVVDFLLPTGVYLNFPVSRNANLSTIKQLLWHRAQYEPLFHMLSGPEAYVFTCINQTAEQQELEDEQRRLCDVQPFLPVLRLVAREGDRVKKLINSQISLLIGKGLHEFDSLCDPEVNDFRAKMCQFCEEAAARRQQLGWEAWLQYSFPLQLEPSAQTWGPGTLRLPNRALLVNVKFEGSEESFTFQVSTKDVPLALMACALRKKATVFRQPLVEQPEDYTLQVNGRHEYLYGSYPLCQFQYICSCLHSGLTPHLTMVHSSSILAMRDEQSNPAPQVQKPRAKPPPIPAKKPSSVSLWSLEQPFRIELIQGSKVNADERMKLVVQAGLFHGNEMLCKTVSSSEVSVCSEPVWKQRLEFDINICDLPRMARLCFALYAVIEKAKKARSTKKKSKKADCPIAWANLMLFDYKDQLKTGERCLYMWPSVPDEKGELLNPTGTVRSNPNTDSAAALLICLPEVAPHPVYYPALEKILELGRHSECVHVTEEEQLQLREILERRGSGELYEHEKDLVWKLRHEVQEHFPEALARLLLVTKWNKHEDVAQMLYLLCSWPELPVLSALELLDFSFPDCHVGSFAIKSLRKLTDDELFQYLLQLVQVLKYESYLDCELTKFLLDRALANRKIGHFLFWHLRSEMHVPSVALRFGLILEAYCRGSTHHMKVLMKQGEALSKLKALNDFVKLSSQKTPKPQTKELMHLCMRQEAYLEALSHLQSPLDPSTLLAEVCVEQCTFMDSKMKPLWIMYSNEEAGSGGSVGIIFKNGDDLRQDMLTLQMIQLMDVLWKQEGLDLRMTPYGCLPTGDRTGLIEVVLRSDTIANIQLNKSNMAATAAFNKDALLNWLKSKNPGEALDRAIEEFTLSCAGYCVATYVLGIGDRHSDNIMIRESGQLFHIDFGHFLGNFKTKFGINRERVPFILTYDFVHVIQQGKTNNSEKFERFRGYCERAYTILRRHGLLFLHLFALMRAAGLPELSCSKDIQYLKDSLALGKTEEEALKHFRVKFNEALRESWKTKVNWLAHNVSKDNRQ

| SMILES | IC50 (PI3K delta) [µM] | IC50 (PI3K beta) [µM] | IC50 (mTOR) [µM] | IC50 (PI3K alfa) [µM] |
| --- | --- | --- | --- | --- |
| CCNc1ncc(-c2ccc3ncc4c(c3c2)n(-c2ccc(N3CC[C@@H](O)C3)nc2C)c(=O)n4C)cn1 [Example 34.3, 8-(2-Ethylamino-pyrimidin-5-yl)-1-[6-((R)-3-hydroxy-pyrrolidin-1-yl)-2-methyl-pyridin-3-yl]-3-methyl-1,3-dihydro-imidazo[4,5-c]quinolin-2-one] | 0.018 | 0.416 | 0.011 | 0.045 |
| CNc1ncc(-c2ccc3ncc4c(c3c2)n(-c2ccc(C(F)(F)F)nc2C)c(=O)n4C)cc1COC [Example 33.6, 8-(5-Methoxymethyl-6-methylamino-pyridin-3-yl)-3-methyl-1-(2-methyl-6-trifluoromethyl-pyridin-3-yl)-1,3-dihydro-imidazo[4,5-c]quinolin-2-one] | 0.01 | 0.062 | 0.07 | 0.027 |
| COc1cc(-c2ccc3ncc4c(c3c2)n(-c2ccc(N3CC(F)(F)C(F)(F)C3)nc2C)c(=O)n4C)cnc1CO [Example 35.3, 8-(6-Hydroxymethyl-5-methoxy-pyridin-3-yl)-3-methyl-1-[2-methyl-6-(3,3,4,4-tetrafluoro-pyrrolidin-1-yl)-pyridin-3-yl]-1,3-dihydro-imidazo[4,5-c]quinolin-2-one] | 0.01 | 0.0487 | 0.175 | 0.014 |
| CCNc1ncc(-c2ccc3ncc4c(c3c2)n(-c2ccc(F)nc2C)c(=O)n4C)cn1 [Example 7.18, 8-(2-Ethylamino-pyrimidin-5-yl)-1-(6-fluoro-2-methyl-pyridin-3-yl)-3-methyl-1,3-dihydro-imidazo[4,5-c]quinolin-2-one] | 0.028 | 0.321 | 0.036 | 0.065 |
| Cc1nc(N2CC(F)(F)C(F)(F)C2)ccc1-n1c(=O)n(C)c2cnc3ccc(-c4cnc(N)c(CO)c4)cc3c21 [Example 35.4, 8-(6-Amino-5-hydroxymethyl-pyridin-3-yl)-3-methyl-1-[2-methyl-6-(3,3,4,4-tetrafluoro-pyrrolidin-1-yl)-pyridin-3-yl]-1,3-dihydro-imidazo[4,5-c]quinolin-2-one] | 0.021 | 0.207 | 0.066 | 0.039 |
| CCNc1ncc(-c2ccc3ncc4c(c3c2)n(-c2ccc(N3CC[C@H](O)C3)nc2C)c(=O)n4C)cn1 [Example 32.10, 8-(2-Ethylamino-pyrimidin-5-yl)-1-[6-((S)-3-hydroxy-pyrrolidin-1-yl)-2-methyl-pyridin-3-yl]-3-methyl-1,3-dihydro-imidazo[4,5-c]quinolin-2-one] | 0.02 | 0.401 | 0.015 | 0.044 |
| COCc1cc(-c2ccc3ncc4c(c3c2)n(-c2ccc(C(F)(F)F)nc2C)c(=O)n4C)cnc1N [Example 33.3, 8-(6-Amino-5-methoxymethyl-pyridin-3-yl)-3-methyl-1-(2-methyl-6-trifluoromethyl-pyridin-3-yl)-1,3-dihydro-imidazo[4,5-c]quinolin-2-one] | 0.007 | 0.022 | 0.06 | 0.012 |
| CCNc1ncc(-c2ccc3ncc4c(c3c2)n(-c2ccc(N3CC(O)C3)nc2C)c(=O)n4C)cn1 [Example 29.7, 8-(2-Ethylamino-pyrimidin-5-yl)-1-[6-(3-hydroxy-azetidin-1-yl)-2-methyl-pyridin-3-yl]-3-methyl-1,3-dihydro-imidazo[4,5-c]quinolin-2-one] | 0.024 | 0.339 | 0.008 | 0.049 |
| Cc1nc(C(F)(F)F)ccc1-n1c(=O)n(C)c2cnc3ccc(-c4cnc(N)c(CO)c4)cc3c21 [Example 33.5, 8-(6-Amino-5-hydroxymethyl-pyridin-3-yl)-3-methyl-1-(2-methyl-6-trifluoromethyl-pyridin-3-yl)-1,3-dihydro-imidazo[4,5-c]quinolin-2-one] | 0.025 | 0.056 | 0.036 | 0.041 |
